Tested on: patients with advanced solid tumors
Test: Phase 1 trial: adverse events (CTCAE), DLT and MTD
Type: in vivo, human
Conditions: Phase 1, 450 mg (N=79)
Protocol: The phase 1 trial was a two-part, multicenter, open-label, nonrandomized study to evaluate the safety and preliminary efficacy of HA121-28.
Safety, tolerability, and PK of HA121-28 was assessed in dose-escalation part. The single-patient accelerated titration was carried out at 25 mg and 50 mg; then, the dose escalation proceeded according to a “3 + 3” design in dose range of 100 to 800 mg. Escalation to a higher dose level was considered by the satisfactory review of safety results from the previous lower dose during the first cycle.
The dose-expansion part aims to further access the safety and efficacy of HA121-28 at the selected doses based on data from the dose-escalation part. The RP2D was determined by investigators in view of a thorough review of safety, PK, and efficacy results.
In phase 1 trial, during the dose-escalation part, patients first administered HA121-28 in a single ascending dose under the fasted state, then followed up for seven days. Then, patients received ascending doses of HA121-28 (q.d.) on a 21-day on and 7-day off treatment scheme for a 28-day cycle. For patients deemed beneficial from the treatment by investigators, treatment could remain until disease progression, or they discontinued from the study. In the dose-expansion part of phase 1, as well as phase 2, patients received HA121-28 (q.d.) at the selected doses on a 21-day on and 7-day off treatment scheme until disease progression, or they discontinued from the study.
Treatment-emergent adverse events (TEAEs) were documented during the entire study period. The predefined adverse event of special interest (AESI) was ≥ grade 3 prolonged QT interval. Tumor imaging was performed using contrast-enhanced computed tomography or magnetic resonance imaging at screening, Day 28 of the first cycle, then approximately every eight weeks till the end of the study for phase 1; in phase 2, imaging was scheduled at screening, and every eight weeks during the first 40 weeks, followed by every 12 weeks for the rest of the study period. RECIST 1.1 was used by the independent review committee or investigators for assessment of tumor response. After the original assessment, a repeated assessment was required around four weeks later to confirm a complete or partial response.
The primary endpoints of phase 1 were to investigate the MTD, dose-limiting toxicities, and the incidence and severity of TEAEs. Each TEAE was graded according to the Common Terminology Criteria for Adverse Events (CTCAE, version 5.0) and coded by Medical Dictionary for Regulatory Activities (MedDRA, version 21.0). The secondary endpoints included calculating PK parameters, assessing the ORR and DCR at the recommended dose by investigators as per RECIST 1.1. The exploratory endpoint was PFS.
If grade 2 or higher toxicity related to the study drug occurs in Groups 1 and 2 (as determined by the investigator), dose escalation will proceed using a 3+3 design starting from that dose level. If no DLT is observed at the 800 mg/d dose level after dose escalation, a meeting of investigators will be convened to decide whether to proceed with further dose escalation based on the available PK data, safety, and tolerability information.
5. Definition of DLT and MTD
The following events related to the study drug (including those that are definitely related, highly likely to be related, and possibly related):
(1) Grade 4 hematologic toxicity or grade 3 neutropenia accompanied by a fever of 38.5℃ or higher, or grade 3 thrombocytopenia accompanied by severe bleeding.
(2) Patients who discontinued the medication for more than 7 days due to unresolved toxicity reactions or who discontinued the medication more than twice due to toxicity […]
(3) In the context of supportive treatment, diarrhea of grade 2 lasting more than 7 days, or grade 3 diarrhea lasting more than 3 days.

COc1cc2c(Nc3ccc(Br)cc3F)ncnc2cc1OCCCCN(C)C.Cl.Cl [HA121-28, N-(4-bromo-2-fluorophenyl)-7-(4-(dimethylamino)butoxy)-6-methoxy quinazolin-4-amine dihydrochloride]
Serious TEAE: Acute pancreatitis: 0 No. (%)
Serious TEAE: Anal abscess: 0 No. (%)
Serious TEAE: Any: 15 (19.0) No. (%)
Serious TEAE: Aortic intramural hematoma: 0 No. (%)
Serious TEAE: Arrhythmia: 1 (1.3) No. (%)
Serious TEAE: Blood bilirubin increased: 0 No. (%)
Serious TEAE: Blood creatinine increased: 0 No. (%)
Serious TEAE: COVID-19: 0 No. (%)
Serious TEAE: Cardiac tamponade: 1 (1.3) No. (%)
Serious TEAE: Coronary artery atherosclerosis: 0 No. (%)
Serious TEAE: Death: 1 (1.3) No. (%)
Serious TEAE: Diarrhea: 0 No. (%)
Serious TEAE: Drug eruption: 0 No. (%)
Serious TEAE: Dyspnea: 0 No. (%)
Serious TEAE: Embolism: 0 No. (%)
Serious TEAE: Erythema multiforme: 0 No. (%)
Serious TEAE: Headache: 0 No. (%)
Serious TEAE: Hemoptysis: 2 (2.5) No. (%)
Serious TEAE: Hydronephrosis: 0 No. (%)
Serious TEAE: Hypertension: 1 (1.3) No. (%)
Serious TEAE: Hypoalbuminemia: 0 No. (%)
Serious TEAE: Intestinal obstruction: 1 (1.3) No. (%)
Serious TEAE: Intra-abdominal fluid collection: 0 No. (%)
Serious TEAE: Intracranial tumor hemorrhage: 0 No. (%)
Serious TEAE: Liver injury: 0 No. (%)
Serious TEAE: Lung adenocarcinoma: 0 No. (%)
Serious TEAE: Malignant neoplasm progression: 1 (1.3) No. (%)
Serious TEAE: Multiple organ dysfunction syndrome: 1 (1.3) No. (%)
Serious TEAE: Nausea: 0 No. (%)
Serious TEAE: Nephrolithiasis: 0 No. (%)
Serious TEAE: Platelet counts decreased: 0 No. (%)
Serious TEAE: Pleural effusion: 1 (1.3) No. (%)
Serious TEAE: Pneumonia: 0 No. (%)
Serious TEAE: Pneumonitis: 1 (1.3) No. (%)
Serious TEAE: Prolonged QT interval: 0 No. (%)
Serious TEAE: Pulmonary embolism: 0 No. (%)
Serious TEAE: Pyrexia: 0 No. (%)
Serious TEAE: Rash: 1 (1.3) No. (%)
Serious TEAE: Rectal hemorrhage: 1 (1.3) No. (%)
Serious TEAE: Respiratory failure: 0 No. (%)
Serious TEAE: Seizure: 2 (2.5) No. (%)
Serious TEAE: Septic shock: 0 No. (%)
Serious TEAE: Sudden cardiac arrest: 0 No. (%)
Serious TEAE: Sudden death: 0 No. (%)
Serious TEAE: Upper respiratory tract infection: 1 (1.3) No. (%)
Serious TEAE: Ventricular tachycardia: 0 No. (%)
Serious TEAE: Vomiting: 0 No. (%)
Serious TEAE: Weight loss: 0 No. (%)
Serious TRAE: ALT increased: 0 No. (%)
Serious TRAE: AST increased: 0 No. (%)
Serious TRAE: Abdominal Pain: 0 No. (%)
Serious TRAE: Abdominal distension: 0 No. (%)
Serious TRAE: Acute cholecystitis: 0 No. (%)
Serious TRAE: Acute pancreatitis: 0 No. (%)
Serious TRAE: Anal abscess: 0 No. (%)
Serious TRAE: Any: 9 (11.4) No. (%)
Serious TRAE: Aortic intramural hematoma: 0 No. (%)
